Patent US8372441B2, “Materials and methods for preparation of alkaline earth ferrates from alkaline earth oxides, peroxides, and nitrates” (Biolife, LLC, priority 2007, dated 2013)

Assays:
[1] = solubility in water or saline solution; format: physicochemical; conditions: for strontium ferrate water or saline solution
mammalian blood = conditions: dry powder on blood; cited from earlier work
[2] = cited from earlier work

Row | Compound | solubility in water [1] | hemostasis (background) (mammalian blood) | solubility in water (background) [2]
1 | [O]=[Fe][O][Fe]=[O] [Ferric oxide] | insoluble | – | –
2 | [Fe+4].[O-2].[O-2].[O-2].[O-2].[Sr+2].[Sr+2] [Strontium ferrate, strontium ferrate] | very insoluble | – | –
3 | [O-2].[Sr+2] [Strontium oxide] | – | some hemostasis | –
4 | OO.[Zn] [Zinc peroxide (ZnO2), Zinc peroxide] | – | some hemostatic activity | –
5 | [Ba+2].[O]=[Fe](=[O])([O-])[O-] [barium ferrate (BaFeO4), barium ferrate] | – | – | practically insoluble
6 | strontium ferrate [strontium ferrate (SrFeO4)] | – | – | practically insoluble
